{
  "source": "ChEMBL document CHEMBL1136901",
  "about": "“Crown-capped imidacloprid: a novel design and insecticidal activity” (Bioorg Med Chem Lett, 2009)",
  "key": {"Musca domestica [1]": {"tested_on": "Musca domestica", "experiment": "Toxicity against Musca domestica Takatsuki assessed as neurological side effects at 1100 ng", "type": "functional, organism-based"}, "Musca domestica [2]": {"tested_on": "Musca domestica", "experiment": "Insecticidal activity against Musca domestica Takatsuki assessed as mortality at 15 ug applied topically", "type": "functional"}, "Musca domestica [3]": {"tested_on": "Musca domestica", "experiment": "Insecticidal activity against Musca domestica Takatsuki assessed as mortality injected into thorax measured after 24 hrs", "type": "functional"}, "[4]": {"experiment": "Octanol-water partition coefficient, log P of the compound", "type": "physicochemical"}, "Musca domestica [5]": {"tested_on": "Musca domestica", "experiment": "Insecticidal activity against Musca domestica Takatsuki in presence of metabolic inhibitor propyl 2-propynyl phenylphosphate", "type": "functional"}},
  "data": [
    {"molecule": "c1ccc2c(c1)OCCOCCOCCOCCO2", "values": [
      {"measurement": "Activity", "setting": "Musca domestica [1]", "value": "Not toxic"}
    ]},
    {"molecule": "O=[N+]([O-])/N=C1\\N(Cc2ccc(Cl)nc2)CCN1Cc1ccc2c(c1)OCCOCCOCCOCCOCCO2", "values": [
      {"measurement": "Activity", "setting": "Musca domestica [2]", "value": 38, "unit": "%"},
      {"measurement": "LD50", "setting": "Musca domestica [3]", "value": 17, "unit": "ng"},
      {"measurement": "logP", "setting": "[4]", "value": 0.28},
      {"measurement": "Activity", "setting": "Musca domestica [5]", "value": 4.3, "unit": "ng"}
    ]},
    {"molecule": "c1ccc2c(c1)OCCOCCOCCOCCOCCO2", "values": [
      {"measurement": "Activity", "setting": "Musca domestica [1]", "value": "Not toxic"}
    ]},
    {"molecule": "O=[N+]([O-])/N=C1\\NCCN1Cc1ccc(Cl)nc1", "note": "[IMIDACLOPRID]", "values": [
      {"measurement": "LD50", "setting": "Musca domestica [3]", "value": 84, "unit": "ng"}
    ]},
    {"molecule": "O=[N+]([O-])/N=C1\\N(Cc2ccc(Cl)nc2)CCN1Cc1ccc2c(c1)OCCOCCOCCOCCO2", "values": [
      {"measurement": "Activity", "setting": "Musca domestica [2]", "value": 44, "unit": "%"},
      {"measurement": "LD50", "setting": "Musca domestica [3]", "value": 25, "unit": "ng"},
      {"measurement": "logP", "setting": "[4]", "value": 0.15},
      {"measurement": "Activity", "setting": "Musca domestica [5]", "value": 4.8, "unit": "ng"}
    ]}
  ]
}
